Non-standard residues stand in square brackets, D forms with d. Residues, ends and D or L forms follow the SMILES beside them. 2Nal = N[C@@H](Cc1ccc2ccccc2c1)C(=O)O; Nle = CCCC[C@H](N)C(=O)O; βAla = NCCC(=O)O
Legend:
[1] = biological target: T1, recombinant hPTH1-receptor (Homo sapiens, UniProt Q03431); assay: Radioreceptor competition binding, 125I-PTH(1-34), HEK293/C21 cells; settings: 125I-PTH(1-34) ~0.1 nM, 2 h at room temperature
T1 construct: expressed in transfected cells
T1 sequence (Q03431 27-593): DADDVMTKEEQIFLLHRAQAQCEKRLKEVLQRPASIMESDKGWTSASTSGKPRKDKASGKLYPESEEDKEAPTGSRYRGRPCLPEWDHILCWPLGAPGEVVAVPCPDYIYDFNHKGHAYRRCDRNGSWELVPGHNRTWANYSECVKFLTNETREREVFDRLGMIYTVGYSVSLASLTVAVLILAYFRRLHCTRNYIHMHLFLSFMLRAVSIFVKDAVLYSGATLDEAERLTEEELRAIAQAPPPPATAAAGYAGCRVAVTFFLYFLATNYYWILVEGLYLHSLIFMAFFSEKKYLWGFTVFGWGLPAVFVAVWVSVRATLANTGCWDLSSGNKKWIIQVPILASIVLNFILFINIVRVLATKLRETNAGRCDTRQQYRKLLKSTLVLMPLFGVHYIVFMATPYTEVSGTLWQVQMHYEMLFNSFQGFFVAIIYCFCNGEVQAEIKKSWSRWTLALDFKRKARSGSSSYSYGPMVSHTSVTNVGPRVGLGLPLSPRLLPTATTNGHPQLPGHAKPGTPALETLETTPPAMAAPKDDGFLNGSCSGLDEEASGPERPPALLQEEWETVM
Protocol: (§1) Human embryonic kidney (HEK293) cells, stably transfected with recombinant hPTH1-receptor (HEK293/C21 cell line, ˜400,000 receptors/cell) (Pines, M., Adams, A. E., Stueckle, S., Bessalle, R., Rashti-Behar, V., Chorev, M., Rosenblatt, M., and Suva, L. J. Endocrinology 1994, 135, 1713-1716), were maintained in D-MEM medium supplemented with 10% fetal bovine serum and […] glutamine at 37° C. in a humidified atmosphere of 95% air/5% CO2. The medium was changed every 3-4 days, and the cells were subcultured every week. Ligand stimulated adenylyl cyclase activity and radioreceptor competition binding assays were performed on confluent cultures, 1-3 days after a change of medium.
[Nle^8,18,Nal^23,Tyr^34]bPTH(1-34)-NH2 was radioiodinated and the crude material was purified as previously described (Roubini, E., Duong, L. T., Gibbons, S. W., Leu, C. T., Caulfield, M. P., Chorev, M., and Rosenblatt, M. Biochemistry 1992, 31, 4026-4033). […] The pure mono-radioiodinated peptide was isolated on an analytical RP-HPLC Vydac Protein C18 column (The Separation Group, Hesperia, Calif.) employing a linear gradient of 36-42% B in A for 30 min (A, 0.1% TFA in water; B, 0.1% TFA in acetonitrile) at a flow rate of 1 mL/min, and monitored at 220 nm. […]

[2] = biological target: T1, recombinant hPTH1-receptor; assay: Stimulation of adenylyl cyclase activity in HEK293/C21 cells; type: cell-based; settings: 1 mM IBMX, 5 min incubation, read-out: EC50 (half maximal stimulation of adenylate cyclase)
Protocol: as §1
Stimulation of adenylyl cyclase activity by the PTH(1-34) analogues was assayed in stably transfected HEK293/C21 as described before (Nakamoto, C., Behar, V., Chin, K. R., Adams, A. E.; Suva, L. J.; Rosenblatt, M.; Chorev, M. Biochemistry 1995, 34, 10546-10552.). Shortly, cells were grown to confluence in 24-well culture dishes. They were then incubated with 0.5 μCi [^3H]adenine in fresh PBS supplemented medium at 37° C. for 2 h and further treated with 1 mM 3-isobutyl-1-methylxantine (IBMX) in fresh medium for 15 min at 37° C. […] Radioactivity was measured in a liquid scintillation counter (Beciman LS6000IC liquid scintillation counter, Downers Grove, Ill.).

CCCC[C@H](NC(=O)[C@H](Cc1ccccc1)NC(=O)[C@H](CCC(N)=O)NC(=O)[C@@H](NC(=O)[C@H](CCC(=O)O)NC(=O)[C@H](CO)NC(=O)[C@@H](NC(=O)[C@H](C)N)C(C)C)[C@@H](C)CC)C(=O)N[C@@H](Cc1c[nH]cn1)C(=O)N[C@@H](CC(N)=O)C(=O)N[C@@H](CC(C)C)C(=O)NCC(=O)N[C@@H](CCCCN)C(=O)N[C@@H](Cc1c[nH]cn1)C(=O)N[C@@H](CC(C)C)C(=O)N[C@@H](CO)C(=O)N[C@@H](CO)C(=O)NCCC(=O)NCCC(=O)N[C@@H](CCCNC(=N)N)C(=O)N[C@H](C(=O)N[C@@H](CCC(=O)O)C(=O)N[C@@H](Cc1ccc2ccccc2c1)C(=O)N[C@@H](CC(C)C)C(=O)N[C@@H](CCCNC(=N)N)C(=O)N[C@@H](CCCCN)C(=O)N[C@@H](CCCCN)C(=O)N[C@@H](CC(C)C)C(=O)N[C@@H](CCC(N)=O)C(=O)N[C@@H](CC(=O)O)C(=O)N[C@H](C(=O)N[C@@H](Cc1c[nH]cn1)C(=O)N[C@@H](CC(N)=O)C(=O)N[C@@H](Cc1ccc(O)cc1)C(N)=O)C(C)C)C(C)C [SEQ ID NO: 14, [Nle^8,β-Ala^18,19,Nal^23,Tyr^34]bPTH(1–34)NH2] (H-AVSEIQF[Nle]HNLGKHLSS[βAla][βAla]RVE[2Nal]LRKKLQDVHNY-NH2; N-terminus assumed)
IC50 [1]: > 1000 nM
EC50 [2]: 13.82 ± 0.02 nM

Reference: US7799757B2, “Analogs of parathyroid hormone and PTH-related protein as bone anabolic agents” (priority 2002, dated 2010)
